Measured values taken from paper PMC9299640, “Incorporation of β‐Alanine in Cu(II) ATCUN Peptide Complexes Increases ROS Levels, DNA Cleavage and Antiproliferative Activity” (Chemistry (Weinheim an Der Bergstrasse, Germany), 2021).
Where a SMILES comes first, the peptide text is derived from it. Where no end group is shown, it is not given here. [ ]: non-standard residue; d: D form. βAla = NCCC(=O)O

Tests used:
[1] = Potentiometric titration of peptides with CuCl2: Cu(II) binding constants and competitivity index at pH 7.4; format: physicochemical; details: 25 °C, I=0.1 (KNO3); for CI7.4 (competitivity index, log K CuZ): calculated at pH 7.4 for 1 mM Cu(II), peptide L and virtual competitive ligand Z from potentiometric stability constants; for log *K4N (protonation-corrected stability constant of Cu(II) 4N complex): log β{CuHn-4L} – log β{HnL}; for log β CuH-1L / log β CuH-2L / log β CuHL / log β CuH-3L / log β CuL: 1 mM peptide, Cu:peptide 1:1, 1:2, 1:3
Description: (§1) Key factors for the investigation of the biological activity of metal complexes are the complex stability and the detection of the active species at a physiological pH value of 7.4.[27] Thus, potentiometric titration experiments of peptides a–g (b) alone and in the presence of CuCl2 (logarithmic protonation (log β) and protonation‐corrected Cu(II) binding constants (log *K)) and pH‐metric UV/VIS and CD spectroscopic measurements of 1–7 (2 [26]) were carried out (S‐5).
(§2) S-5 Protonation and complex stability constants
(§3) All bioanalytical experiments (DNA cleavage, DNA binding and ROS detection studies) and cell studies (cytotoxicity and cellular uptake) were carried out at pH 7.4. To characterize the speciation of the ATCUN metallopeptides at this pH, potentiometric titrations in combination with UV/VIS and CD spectroscopy were carried out for 1 and 3-7.
(§4) S-5.1 Potentiometry, UV/VIS and circular dichroism (CD) spectroscopy […]
(§5) Potentiometric titrations were performed on a 907 Titrando Automatic Titrator (Metrohm) using a Biotrode combined glass electrode (Metrohm), calibrated daily by nitric acid titrations with the use of standardized 100 mM NaOH (carbon dioxide-free) as a […]
Stock solution preparation:
Stock solutions of peptides a and c–g for UV/VIS and CD experiments were prepared by dissolving given amounts of peptides in carbon dioxide-free Milli-Q® water.
Samples (1.5 mL volume, 1 mM peptide) were prepared in 4 mM HNO3/96 mM KNO3 solution. To calculate ligand (peptide) concentrations and their protonation constants, at least three consecutive potentiometric titrations were performed.
Three samples (1.5 mL) of 1 mM peptide and CuCl2 with Cu : peptide ratios of 1:1, 1:2 and 1:3 were prepared in 4 mM HNO3/96 mM KNO3. Each sample was titrated separately using a standardized 100 mM NaOH solution. The pH range for all potentiometric […]
All ligand and complex titrations were performed under argon at 25 °C. The data was analyzed using the SUPERQUAD and HYPERQUAD programs.
For the determination of Cu(II) stability constants, peptides a and c–g UV/VIS spectra were recorded in a range of 250–900 nm with a scan resolution of 1 nm, and a scan speed of 0.5 s/nm on a Lambda 950 UV/VIS/NIR spectrophotometer (PerkinElmer). The samples of 1 mM peptide/0.8 mM CuCl2 were prepared in 1 cm path length quartz cuvettes (Hellma) and titrated with small amounts of concentrated NaOH solution. Usually the pH-metric titration spanned from pH 2.9 to pH 12.5. […]
(§6) Table S5. Logarithmic protonation and Cu(II) binding constants (log β and pK) of peptides a-g (b not measured), determined by potentiometry at 25 °C and I=0.1 (KNO3), and competitivity index (CI) values calculated at pH 7.4 for 1 mM Cu(II) and peptides based on respective stability constants.
(§7) Statistical errors on the last digits of log β values, provided by HYPERQUAD, are given in parentheses. […]
(§8) log β pK log β pK log β pK log β pK log β pK log β pK
CuH3L - - - - - - - - - -
CI: Competitivity index calculated for pH 7.4 and peptide L, Cu(II) and Z concentrations of 0.001 M. CI is log KCuZ fulfilling the condition Σijk([CuiHjLk]=[CuZ].3 log *K4N is a protonation-corrected stability constant allowing to compare peptides with different protonation states forming the same type of complexes In general log*KxN, where x stand for number of coordinated nitrogens can be described by log *KxN = log β{CuHn-xL} – log β{HnL} HnL stands for the protonation of coordinating histidine (in position 3 from N-terminus in case of ATCUN motifs) […]
Peptides can be compared easily between each other using both protonation-corrected stability constant (log *K4N) and Competitivity Index at pH 7.4 (CI7.4):
(§9) For log *K4N, the higher the number (less negative value) the higher stability of Cu(II) complexes (only relative meaning – no interpretation of concentrations of species possible).
For CI7.4, the higher the number the higher the stability. […]

[2] = Potentiometric titration of peptides: protonation constants; format: physicochemical; details: protonation constant, potentiometry, 1 mM peptide, error on last digit in parentheses; for log β H2L / log β H3L / log β HL: 25 °C, I=0.1 (KNO3)
Description: as §1, §2, §3, §4, §5
Stock solution preparation: […]
Samples (1.5 mL volume, 1 mM peptide) were prepared in 4 mM HNO3/96 mM KNO3 solution. To calculate ligand (peptide) concentrations and their protonation constants, at least three consecutive potentiometric titrations were performed. […]
The pH range for all potentiometric
All ligand and complex titrations were performed under argon at 25 °C. The data was analyzed using the SUPERQUAD and HYPERQUAD programs. […]
as §6, §7, §8
CuH3L - - - - - - - - - - […]
as §9
For CI7.4, the higher the number the higher the stability. CI is the affinity constant for the imaginary CuZ complex which is equivalent in strength to the probed complex/set of complexes. The advantage of CI is that its unit is M-1, and can be compared with log K values for real complexes.

[3] = potentiometry, error on last digit in parentheses

pK CuH-1L ([1]; Cu(II) species, potentiometry)	pK CuH-2L ([1]; Cu(II) species, potentiometry)	CI7.4 (competitivity index, log K CuZ) [1]	log *K4N (protonation-corrected stability constant of Cu(II) 4N complex) ([1]; potentiometry)	log β CuH-1L [1, 3]	log β CuH-2L [1, 3]	log β CuHL [1, 3]	log β H2L [2]	log β H3L [2]	log β HL [2]	pK CuH-3L ([1]; Cu(II) species, potentiometry)	log β CuH-3L [1, 3]	log β CuL [1, 3]	pK CuL ([1]; Cu(II) species, potentiometry)	log β CuH2L ([1]; potentiometry, 4 mM HNO3/96 mM KNO3, 1 mM peptide, Cu:peptide 1:1, 1:2, 1:3, pH 2.7-11.6, argon, error on last digit in parentheses)	log β H4L ([2]; 4 mM HNO3/96 mM KNO3, 25 °C, I=0.1, argon, at least three titrations)	Compound
4.82	10.10	11.29	-16.738	7.108(5)	-2.987(9)	16.75(1)	17.755(5)	23.846(5)	10.255(3)							NCCCC[C@H](NC(=O)[C@H](Cc1c[nH]cn1)NC(=O)CCNC(=O)[C@@H](N)Cc1c[nH]c2ccccc12)C(=O)N[C@@H](CO)C(=O)N[C@@H](CO)C(N)=O [g] (H-W[βAla]HKSS-NH2)
		13.61	-14.747		-0.587(5)		14.160(2)		7.853(1)	11.79	-12.38(2)					GGHGSS-NH2 [a]
	4.92	11.28	-16.804		-3.104(3)		13.700(3)		7.584(3)	11.58	-14.683(9)	6.743(7)				NC(=O)[C@H](CO)NC(=O)[C@H](CO)NC(=O)[C@H](Cc1c[nH]c2ccccc12)NC(=O)[C@H](Cc1c[nH]cn1)NC(=O)CCNC(=O)[C@@H](N)Cc1c[nH]c2ccccc12 [e] (H-W[βAla]HWSS-NH2)
10.00	10.41	10.31	-17.537	6.337(8)	-4.068(6)		20.563(2)	27.860(3)	10.656(3)			16.338(4)	5.13	26.604(9)	33.875(4)	NCCCC[C@H](NC(=O)[C@H](Cc1c[nH]cn1)NC(=O)CCNC(=O)[C@@H](N)CCCCN)C(=O)N[C@@H](CO)C(=O)N[C@@H](CO)C(N)=O [d] (H-K[βAla]HKSS-NH2)
5.06	10.12	10.52	-17.435	6.280(3)	-3.840(7)	16.406(9)	17.632(4)	23.715(5)	10.262(3)	11.17	-15.007(8)					NCCCC[C@H](N)C(=O)NCCC(=O)N[C@@H](Cc1c[nH]cn1)C(=O)N[C@@H](Cc1c[nH]c2ccccc12)C(=O)N[C@@H](CO)C(=O)N[C@@H](CO)C(N)=O [f] (H-K[βAla]HWSS-NH2)
	5.65	9.915	-18.426		-4.160(5)		14.266(3)		8.001(2)	10.4	-14.560(8)	7.137(5)				NCC(=O)NCCC(=O)N[C@@H](Cc1c[nH]cn1)C(=O)NCC(=O)N[C@@H](CO)C(=O)N[C@@H](CO)C(N)=O [Peptide c] (H-G[βAla]HGSS-NH2)
